Experimental data reported in patent publication US20240287194A1, “Targeting Extracellular Matrix Proteins to Regulate NK Cell Function in Peripheral Tissues” (The General Hospital Corporation, priority 2021, published 2024).

Experiments:
[1] = tested on: Ly49H^+ splenic cNK cells; experiment: Splenic cNK cell co-culture with m157-MEF in the presence of ECM proteins (CD107a, IFNγ flow cytometry); format: cell-based, mice; details: for altering NK cell functions (CD107a, IFNγ): co-culture with m157-MEF
Protocol: (§1) Single-cell suspensions from all samples were prepared by straining through a 70 μm filter. 2.4G2 supernatant treated cells were stained in 1×PBS/2% FCS/5 mM EDTA with the appropriate surface antibodies (Table 2) for 30 minutes at 4° C., washed and analyzed by flow cytometry. For intracellular staining, cells were fixed and permeabilized using True-Nuclear Transcription Buffer set (Biolegend, catalog no. 424401) according to the manufacturer's protocol then incubated with appropriate antibodies (Table 2) for 60 min at RT, washed and analyzed by flow cytometry. For in vitro signaling experiments, following the specified time points, cells were fixed with an equal volume of pre-warmed 1×aldehyde based fixation buffer (Biolegend, catalog no. 420801) for 20 min at RT. Fixed cells were permeabilized by drop-wise addition of chilled methanol-based solution True-Phos Perm Buffer (Biolegend, catalog no. 425401) while mixed on a vortex. Cells were stored in-20° C. and dark for 1-3 days before washing them two times with ˜3 mL of 1×PBS/2% FCS/5 mM EDTA. Cells were subsequently stained with appropriate antibodies against surface markers and specific phosphorylated signaling proteins (Table 2) for 60 min at RT, washed and analyzed by flow cytometry. Cells were assayed on a BD LSRFortessa X-20 flow cytometer (BD Bioscience, Billerica, MA, USA) and data were analyzed using FlowJo software Version 10 (Tree Star, Ashlad, OR, USA). NK cells in WT non-reporting mice were identified as CD3^− NK1.1^+NKp46^+.
(§2) For in vitro experiments in the presence of ECM components, Collagen I (Rat tail, Sigma, catalog no. 08-115), collagen III (Human placenta, Sigma, catalog no. C4407), collagen IV (Mouse, Sigma, catalog no. C0543), Elastin (Mouse lung, Sigma, catalog no. E6402), Laminin (Mouse, Thermo Fisher, catalog no. 23017015) and Fibronectin (Rat plasma, Sigma, catalog no. F0635) were diluted in 1×PBS and coated at 20 μ ENREF 45 g/cm^2 in a 24 well tissue culture plate for 30 minutes at RT with gentle shaking followed by overnight at 4° C. Spleens from Ncr1^iCre, ROSA^mT-mG, WT or Lair1^−/− mice were harvested as described above. Then, 5×10^6 splenocytes resuspended in RPMI 10% FBS/1% P/S/20 mM Glutamine were mixed with 20 μg of respective ECM protein per well and were incubated at RT for 10 minutes. Splenocytes and ECM mix were plated onto the ECM-coated well and were incubated at 37° C./5% CO2 for 2 hours (short ECM exposure) or 17 hours (long ECM exposure). At the end of the incubation, 1×10^5 MEF (WT or m157) cells were added to each well to obtain a 50:1 splenocyte:MEF ratio. For cell signaling experiments, hydrogen peroxide (H2O2) at a final concentration of 2.5 mM or 1×10^5 MEF-m157 cells were added to each well except in “0 min” wells which were unstimulated and fixed immediately. Splenocytes were stimulated with 2.5 mM H2O2 for 2 min and 5 min or were co-cultured with MEF-m157 for 30 min and 60 min (signaling) or 7 hours (CD107a and IFN[…]) at 37° C./5% CO2. Splenocytes and MEF in co-culture were supplemented with mIL-12 (10 ng/mL, Biolegend, catalog no. 577002), mIL-15 (1 ng/mL, Shenandoah Biotechnology, catalog no. 200-07) and hIL-2 (Biolegend, catalog no. 589104; only long ECM exposure) as well as for CD107a/IFN experiments. 1 μL of anti-CD107a-BV421 (1D4B, Biolegend, catalog no. 121618), 1×Brefeldin A (Biolegend, catalog no. 420601) and 1×Monensin (Biolegend, catalog no. 420701) were added. Following the co-culture, cells were washed with 1×PBS/2% FCS/5 mM EDTA and the pellet was resuspended in 2.4G2 blocking solution before flow cytometry staining.

[2] = tested on: B2m^−/− B16-F10 melanoma cells; experiment: Subcutaneous (S.C.) B2m−/− B16 melanoma model; format: in vivo, mice; details: for proportions of tumor infiltrating Tregs, macrophages and MDSCs: B2m−/− B16 melanoma at the endpoint; for NK cell infiltration of the tumor parenchyma: B2m−/− B16 melanoma, day 3 post-S.C. injection; for T cell recruitment into the B2m−/− B16 tumors: CD3+ T cells, day 3 post S.C. injection; for IFNγ expression of tumor NK cells / PD-1 expression of tumor NK cells / granzyme B expression of tumor NK cells: NK cells from B2m−/− B16 melanoma, day 19-21 post-S.C. injection; for survival / B2m−/− melanoma growth in the skin: S.C. B2m−/− B16 in WT mice, losartan 60 mg/kg or DHB 40 mg/kg I.P. every day; for B2m−/− melanoma growth in the skin: control IgG vs anti-NK1.1
Protocol: All tumor experiments were performed in eight to twelve-week-old C57BL/6 female WT or Ncr1^iCre ROSA^mT-mG mice. For the S.C. tumor model, 2.5×10^5 B16-F10 WT or B2m^−/− cells were subcutaneously injected into the shaved flanks of mice. Tumor growth was measured every other day using a digital caliper starting from day seven. Tumor volume was calculated as follows: […]
To inhibit collagen deposition in and around the tumor, mice were administered with 60 mg/kg of Losartan Potassium (Fisher Scientific, catalog no. L02325G) or 40 mg/kg of 3,4-dihydroxybenzoic acid (DHB) (Sigma-Aldrich, catalog no. 37580) in 100 μL of sterile 1×PBS while the control mice were administered with the equivalent volume of sterile 1×PBS. These drugs were injected I.P. every day for the duration of the study starting the day of tumor inoculation.
For the collagenase/hyaluronidase experiment, 2.5×10^5 B16-F10 B2m^−/− cells were resuspended in 1×collagenase and hyaluronidase mix (Stemcell, catalog no. 07912) and were subcutaneously injected into the shaved flanks of mice. To deplete collagen within the tumor, mice were administered with 1×collagenase and hyaluronidase mix (Stemcell, catalog no. 07912) in 100 μL of sterile 1×PBS while control mice were administered with the equivalent volume of sterile 1×sPBS. These enzymes were injected via intratumoral (I.T.) route starting on the day of tumor inoculation (day 0), day 1, day 2, day 3, day 4 and then every other day (day 6, 8, 10, etc.) until the end of the study. Except for day 3 tumor harvest, mice were euthanized when a tumor reached 2 cm in diameter in accordance with IACUC protocols. For early time point tumor analysis, specific Ncr1^iCre, ROSA^mT-mG mice from PBS, Losartan and DHB group were euthanized on day 3 post tumor inoculation, the implanted tumor harvested and fixed in pre-chilled 95% ethanol overnight at 4° C. before subjecting them to subsequent processing.
Terminal subcutaneous tumors were excised with the skin and weighed before cutting in half. One half was placed in appropriate fixative while the other half was separated from the skin and chopped with scissors into ˜1 mm pieces. These were transferred to a 15 mL tube with 10 mL digest buffer (RPMI 1640 (Life Technologies, catalog no. 21870076), 200 U/mL Collagenase IV (Worthington Biochemical, Lakewood, NJ, USA)) and incubated for 2 hours at 37° C. with shaking. Following incubation, digested tumor was poured onto a […] strainer placed in a 50 mL tube. The 15 mL tube was rinsed with ˜3 mL of 1×PBS/2% FCS/5 mM EDTA and added to the digested sample. The tumor was mashed with a plunger through the […] strainer which was then rinsed ˜3 times with a small volume of 1×PBS/2% FCS/5 mM EDTA. The tumor-infiltrating CD45^+ immune cells were isolated by magnetic-based positive selection using CD45 microbeads (Miltenyi Biotec, catalog no. 130-052-301) according to the manufacturer's protocol. The stained cells were passed through the LS columns (Miltenyi Biotec, catalog no. 130-042-401) placed between magnets for isolation of immune cells. The isolated CD45^+ cells were centrifuged at 300 g for 5 minutes at 4° C. and resuspended in 2.4G2 blocking solution before flow cytometry staining.
Mice were I.P. injected with 500 μg/mouse of IgG isotype control (Southern Biotech, Birmingham, AL, USA, catalog no. 0107-01) or depleting anti-NK1.1 antibody (clone PK136, BioXcell, West Lebanon, NH, USA, catalog no. BE0036) two days before tumor cell injection and 250 μg/mouse every other day starting the day of the tumor cell injection. For depletion of NK or T cells (anti-CD4 antibody, clone GK1.5, BioXcell; anti-CD8a antibody, clone YTS 169.4, BioXcell) in a skin transplant setting, 500 μg/mouse of each depleting antibody were injected the day of the transplant and 250 μg at days indicated in FIG. S5E. […]

splenic cNK cells = experiment: Phospho-signaling in splenic cNK cells stimulated with H2O2 in the presence of ECM proteins; format: cell-based, mice
Protocol: as §1, §2

Row | Molecule | altering NK cell functions (CD107a, IFNγ) ([1]; 9 and 24 hours) | proportions of tumor infiltrating Tregs, macrophages and MDSCs [2] | NK cell infiltration of the tumor parenchyma [2] | T cell recruitment into the B2m−/− B16 tumors [2] | IFNγ expression of tumor NK cells [2] | PD-1 expression of tumor NK cells [2] | granzyme B expression of tumor NK cells [2] | survival [2] | B2m−/− melanoma growth in the skin [2] | also measured
1 | laminin: Laminin (Mouse, Thermo Fisher), epidermal basement membrane protein | played a minor role |  |  |  |  |  |  |  |  | 
2 | O=C(O)c1ccc(O)c(O)c1 [DHB, 3,4-dihydroxybenzoic acid] |  | remained unaltered or increased | highly infiltrated the tumor parenchyma | did not induce T cell recruitment | markedly elevated expression | markedly elevated expression | markedly elevated expression | significant survival benefit | protected the mice from B2m^−/− melanoma growth in the skin in an NK cell-dependent manner | 
3 | collagen IV: collagen IV (Mouse, Sigma), epidermal basement membrane protein | played a minor role |  |  |  |  |  |  |  |  | 
4 | CCCCc1nc(Cl)c(CO)n1Cc1ccc(-c2ccccc2-c2nn[nH]n2)cc1 [losartan, Losartan Potassium] |  | remained unaltered or increased | highly infiltrated the tumor parenchyma | did not induce T cell recruitment | markedly elevated expression | markedly elevated expression | markedly elevated expression | significant survival benefit | protected the mice from B2m^−/− melanoma growth in the skin in an NK cell-dependent manner | 
5 | fibronectin: Fibronectin (Rat plasma, Sigma), epidermal basement membrane protein | played a minor role |  |  |  |  |  |  |  |  | 
6 | elastin: Elastin (Mouse lung, Sigma), dermal ECM protein (protein, UniProt P54320 28-860, looked up) Elastin: GGVPGAVPGGLPGGVPGGVYYPGAGIGGLGGGGGALGPGGKPPKPGAGLLGTFGAGPGGLGGAGPGAGLGAFPAGTFPGAGALVPGGAAGAAAAYKAAAKAGAGLGGVGGVPGGVGVGGVPGGVGVGGVPGGVGVGGVPGGVGGIGGIGGLGVSTGAVVPQVGAGIGAGGKPGKVPGVGLPGVYPGGVLPGTGARFPGVGVLPGVPTGTGVKAKAPGGGGAFAGIPGVGPFGGQQPGVPLGYPIKAPKLPGGYGLPYTNGKLPYGVAGAGGKAGYPTGTGVGSQAAAAAAKAAKYGAGGAGVLPGVGGGGIPGGAGAIPGIGGIAGAGTPAAAAAAKAAAKAAKYGAAGGLVPGGPGVRLPGAGIPGVGGIPGVGGIPGVGGPGIGGPGIVGGPGAVSPAAAAKAAAKAAKYGARGGVGIPTYGVGAGGFPGYGVGAGAGLGGASPAAAAAAAKAAKYGAGGAGALGGLVPGAVPGALPGAVPAVPGAGGVPGAGTPAAAAAAAAAKAAAKAGLGPGVGGVPGGVGVGGIPGGVGVGGVPGGVGPGGVTGIGAGPGGLGGAGSPAAAKSAAKAAAKAQYRAAAGLGAGVPGFGAGAGVPGFGAGAGVPGFGAGAGVPGFGAGAGVPGFGAGAVPGSLAASKAAKYGAAGGLGGPGGLGGPGGLGGPGGLGGAGVPGRVAGAAPPAAAAAAAKAAAKAAQYGLGGAGGLGAGGLGAGGLGAGGLGAGGLGAGGLGAGGLGAGGLGAGGGVSPAAAAKAAKYGAAGLGGVLGARPFPGGGVAARPGFGLSPIYPGGGAGGLGVGGKPPKPYGGALGALGYQGGGCFGKSCGRKRK |  |  |  |  |  |  |  |  |  | Ly49H+ cNK cell degranulation (CD107a) ([1]; 9 and 24 hours co-culture with m157-MEF, ECM coated 20 μg/cm2): potently blocked; IFNγ production by Ly49H+ cNK cells ([1]; exposed to m157-MEF, 9 and 24 hours): suppressed; pERK1/2 levels in NK cells (splenic cNK cells; H2O2 2.5 mM, 2 and 5 min): markedly reduced; pPLCγ1 levels in NK cells (splenic cNK cells; H2O2 2.5 mM, 2 and 5 min): markedly reduced; pSTAT3 in NK cells (splenic cNK cells; baseline and 2- and 5-minute exposure to H2O2): increased pSTAT3 at baseline; pSTAT5 in NK cells (splenic cNK cells; baseline and 2- and 5-minutes exposure to H2O2): highly induced
